Data from US9518107B2, “Pharmaceutical compositions containing polypeptides derived from α-1 antitrypsin and methods of use thereof” (YISSUM RESEARCH DEVELOPMENT COMPANY OF THE HEBREW …, priority 2010, dated 2016).

Tested on: Male CD1 mice
Assay: Carrageenan-induced hind paw swelling
Assay type: in vivo
Settings: UBE injected thirty minutes before carrageenan; swelling after 3 hours versus prior to carrageenan; FIG. 1
Procedure: Male CD1 mice were intravenously (i.v.) injected with the indicated doses of the UBE polypeptide having the sequence […] (SEQ ID NO:2). Thirty minutes thereafter, each animal was injected with carrageenan (50 μl of 3 mg/ml into each hindpaw). The animals were evaluated for the difference between the degree of swelling (mm) after 3 hours and prior to carrageenan injection.

Q: How did the “carrageenan-induced inflammation (hind paw swelling)” value turn out when “SMPPIVRFDHPFLFIIFEEHTQSPLFVGKVVDPTHK (listed as Mus musculus) [UBE, 36-mer peptide corresponding to residues 378-413 of Mus musculus alpha-1-antitrypsin (serpin a1c)]” was run?
A: The value was “significant reduction”.
